Results published in ChEMBL document CHEMBL5465560, “Selectivity Literature for EUbOPEN Chemogenomic Library” (2024).

Columns and labels:
[1] = Selectivity interaction (KinomeScan (DiscoverX)) EUB0000655a CDPK1; settings: at 10 µM
[2] = target: T1, cAMP-dependent protein kinase catalytic subunit PRKX (Homo sapiens) (UniProt P51817); test: Selectivity interaction (KinomeScan (DiscoverX)) EUB0000618a PRKX; settings: at 10 µM
T1 sequence (whole entry): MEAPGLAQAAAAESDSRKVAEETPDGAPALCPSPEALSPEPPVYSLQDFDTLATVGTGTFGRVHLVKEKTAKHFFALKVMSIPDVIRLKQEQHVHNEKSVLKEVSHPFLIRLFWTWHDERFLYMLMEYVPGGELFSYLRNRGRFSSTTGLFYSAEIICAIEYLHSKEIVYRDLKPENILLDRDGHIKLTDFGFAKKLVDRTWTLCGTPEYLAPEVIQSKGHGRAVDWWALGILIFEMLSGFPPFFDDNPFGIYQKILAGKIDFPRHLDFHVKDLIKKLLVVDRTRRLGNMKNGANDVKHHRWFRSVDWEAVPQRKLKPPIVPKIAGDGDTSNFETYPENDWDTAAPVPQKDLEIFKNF

[3] = target: cAMP-dependent protein kinase catalytic subunit alpha (Homo sapiens, UniProt P17612); test: Selectivity interaction (SelectScreen profiling (Invitrogen)) EUB0000607a PRKACA; settings: at 2 µM
[4] = target: Proto-oncogene tyrosine-protein kinase Src (Homo sapiens, UniProt P12931); test: Selectivity interaction (ActivX KiNativ screen (ex vivo kinase selectivity in human PBMCs)) EUB0001619a SRC; assay type: cell-based; settings: PBMC, at 1 µM
Sequence of Proto-oncogene tyrosine-protein kinase Src (P12931 2-536 limits assumed): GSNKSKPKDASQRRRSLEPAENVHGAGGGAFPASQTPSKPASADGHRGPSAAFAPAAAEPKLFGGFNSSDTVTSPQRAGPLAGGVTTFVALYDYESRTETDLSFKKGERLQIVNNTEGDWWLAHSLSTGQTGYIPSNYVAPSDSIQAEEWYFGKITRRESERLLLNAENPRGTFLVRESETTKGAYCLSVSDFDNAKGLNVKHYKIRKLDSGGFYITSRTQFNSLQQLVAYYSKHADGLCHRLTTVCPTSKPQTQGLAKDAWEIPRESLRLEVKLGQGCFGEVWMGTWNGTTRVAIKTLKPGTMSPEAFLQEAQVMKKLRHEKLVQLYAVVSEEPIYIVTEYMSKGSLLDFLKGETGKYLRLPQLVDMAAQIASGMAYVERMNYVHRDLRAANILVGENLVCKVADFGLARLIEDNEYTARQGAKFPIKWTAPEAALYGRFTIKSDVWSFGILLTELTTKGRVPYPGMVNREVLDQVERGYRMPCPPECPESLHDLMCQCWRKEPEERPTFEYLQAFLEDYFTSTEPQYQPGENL

[5] = target: Tyrosine-protein kinase Blk (Homo sapiens) (UniProt P51451); test: Selectivity interaction (KinomeScan (DiscoverX)) EUB0001619a BLK; settings: at 1 µM
Sequence of Tyrosine-protein kinase Blk (Homo sapiens) (P51451 2-505 limits assumed): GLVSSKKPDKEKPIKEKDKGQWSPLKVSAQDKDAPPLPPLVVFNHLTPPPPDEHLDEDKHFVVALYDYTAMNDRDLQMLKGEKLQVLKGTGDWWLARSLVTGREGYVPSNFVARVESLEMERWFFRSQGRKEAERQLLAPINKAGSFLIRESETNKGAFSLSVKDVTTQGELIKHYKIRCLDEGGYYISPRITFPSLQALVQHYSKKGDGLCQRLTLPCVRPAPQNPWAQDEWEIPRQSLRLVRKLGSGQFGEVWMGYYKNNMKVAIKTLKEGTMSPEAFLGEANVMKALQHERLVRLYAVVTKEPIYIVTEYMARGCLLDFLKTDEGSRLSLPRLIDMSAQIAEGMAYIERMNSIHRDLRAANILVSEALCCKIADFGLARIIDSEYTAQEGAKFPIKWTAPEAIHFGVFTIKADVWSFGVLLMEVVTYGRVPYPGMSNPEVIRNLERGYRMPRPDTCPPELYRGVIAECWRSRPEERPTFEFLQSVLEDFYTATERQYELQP

[6] = target: T2, Mitogen-activated protein kinase kinase kinase 6 (Homo sapiens) (UniProt O95382); test: Selectivity interaction (KinomeScan (DiscoverX)) EUB0001619a MAP3K6; settings: at 1 µM
T2 sequence (whole entry): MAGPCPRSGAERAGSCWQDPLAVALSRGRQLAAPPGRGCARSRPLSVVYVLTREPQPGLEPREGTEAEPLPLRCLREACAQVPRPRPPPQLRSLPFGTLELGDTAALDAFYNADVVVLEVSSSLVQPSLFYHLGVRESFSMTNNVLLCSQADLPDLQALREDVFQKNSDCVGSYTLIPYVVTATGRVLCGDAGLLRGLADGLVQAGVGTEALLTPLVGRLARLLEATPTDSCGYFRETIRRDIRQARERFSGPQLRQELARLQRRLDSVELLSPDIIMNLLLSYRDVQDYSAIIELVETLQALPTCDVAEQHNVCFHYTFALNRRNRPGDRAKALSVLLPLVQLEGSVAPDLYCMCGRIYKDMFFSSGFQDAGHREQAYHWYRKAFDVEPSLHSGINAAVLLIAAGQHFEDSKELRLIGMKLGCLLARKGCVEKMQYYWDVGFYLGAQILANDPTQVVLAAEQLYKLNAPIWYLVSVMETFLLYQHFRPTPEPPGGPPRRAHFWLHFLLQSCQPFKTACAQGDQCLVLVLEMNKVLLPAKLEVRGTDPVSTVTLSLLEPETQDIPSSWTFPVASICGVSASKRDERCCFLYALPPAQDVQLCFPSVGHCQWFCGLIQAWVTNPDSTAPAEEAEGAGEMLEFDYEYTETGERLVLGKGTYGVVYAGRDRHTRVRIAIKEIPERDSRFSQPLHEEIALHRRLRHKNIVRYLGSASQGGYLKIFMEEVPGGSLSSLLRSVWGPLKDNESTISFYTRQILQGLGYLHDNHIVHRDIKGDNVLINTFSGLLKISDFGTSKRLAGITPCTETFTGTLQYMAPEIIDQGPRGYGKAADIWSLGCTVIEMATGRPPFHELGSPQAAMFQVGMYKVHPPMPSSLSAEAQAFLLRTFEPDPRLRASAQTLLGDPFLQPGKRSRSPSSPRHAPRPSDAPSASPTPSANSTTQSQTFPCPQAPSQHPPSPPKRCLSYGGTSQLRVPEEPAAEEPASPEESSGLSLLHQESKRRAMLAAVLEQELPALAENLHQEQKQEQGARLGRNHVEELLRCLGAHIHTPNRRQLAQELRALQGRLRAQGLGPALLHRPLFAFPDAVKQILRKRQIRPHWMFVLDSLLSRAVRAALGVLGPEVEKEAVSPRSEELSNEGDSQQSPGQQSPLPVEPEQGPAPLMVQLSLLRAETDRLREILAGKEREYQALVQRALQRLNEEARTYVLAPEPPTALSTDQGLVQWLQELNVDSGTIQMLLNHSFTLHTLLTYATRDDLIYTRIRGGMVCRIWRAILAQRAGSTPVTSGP

[7] = target: Serine/threonine-protein kinase 38-like (Homo sapiens) (UniProt Q9Y2H1); test: Selectivity interaction (ActivX KiNativ screen (ex vivo kinase selectivity in human PBMCs)) EUB0001619a STK38L; assay type: cell-based; settings: PBMC, at 1 µM
Sequence of Serine/threonine-protein kinase 38-like (Homo sapiens) (Q9Y2H1 2-464 limits assumed): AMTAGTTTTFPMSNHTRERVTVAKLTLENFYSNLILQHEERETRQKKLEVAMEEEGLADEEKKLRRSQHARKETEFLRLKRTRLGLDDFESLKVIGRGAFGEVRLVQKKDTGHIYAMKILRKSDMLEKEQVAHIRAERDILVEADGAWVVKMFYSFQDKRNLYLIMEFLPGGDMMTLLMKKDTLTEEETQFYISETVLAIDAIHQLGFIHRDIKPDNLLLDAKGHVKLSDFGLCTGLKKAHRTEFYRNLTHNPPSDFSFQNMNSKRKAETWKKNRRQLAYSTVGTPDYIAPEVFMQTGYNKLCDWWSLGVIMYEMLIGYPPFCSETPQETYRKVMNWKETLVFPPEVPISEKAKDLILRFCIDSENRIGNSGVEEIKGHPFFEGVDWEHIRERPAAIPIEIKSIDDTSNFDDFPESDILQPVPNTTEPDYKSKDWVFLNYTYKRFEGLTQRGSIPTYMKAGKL

[8] = target: Casein kinase I isoform alpha (Homo sapiens, UniProt P48729); test: Selectivity interaction (KinomeScan (DiscoverX)) EUB0000045b CSNK1A1
Sequence of Casein kinase I isoform alpha (P48729 2-337 limits assumed): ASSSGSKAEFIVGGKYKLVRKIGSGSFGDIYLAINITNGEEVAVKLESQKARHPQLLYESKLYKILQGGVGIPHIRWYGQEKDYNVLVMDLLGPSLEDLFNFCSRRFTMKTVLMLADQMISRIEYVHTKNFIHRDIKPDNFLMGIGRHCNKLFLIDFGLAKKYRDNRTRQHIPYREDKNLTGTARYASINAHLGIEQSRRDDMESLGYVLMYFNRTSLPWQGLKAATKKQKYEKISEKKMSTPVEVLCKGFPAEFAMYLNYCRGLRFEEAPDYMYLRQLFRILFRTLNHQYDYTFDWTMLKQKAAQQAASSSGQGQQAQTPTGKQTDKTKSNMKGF

[9] = target: Serine/threonine-protein kinase OSR1 (Homo sapiens) (UniProt O95747); test: Selectivity interaction (KinomeScan (DiscoverX)) EUB0000045b OXSR1
Sequence of Serine/threonine-protein kinase OSR1 (Homo sapiens) (O95747 2-527 limits assumed): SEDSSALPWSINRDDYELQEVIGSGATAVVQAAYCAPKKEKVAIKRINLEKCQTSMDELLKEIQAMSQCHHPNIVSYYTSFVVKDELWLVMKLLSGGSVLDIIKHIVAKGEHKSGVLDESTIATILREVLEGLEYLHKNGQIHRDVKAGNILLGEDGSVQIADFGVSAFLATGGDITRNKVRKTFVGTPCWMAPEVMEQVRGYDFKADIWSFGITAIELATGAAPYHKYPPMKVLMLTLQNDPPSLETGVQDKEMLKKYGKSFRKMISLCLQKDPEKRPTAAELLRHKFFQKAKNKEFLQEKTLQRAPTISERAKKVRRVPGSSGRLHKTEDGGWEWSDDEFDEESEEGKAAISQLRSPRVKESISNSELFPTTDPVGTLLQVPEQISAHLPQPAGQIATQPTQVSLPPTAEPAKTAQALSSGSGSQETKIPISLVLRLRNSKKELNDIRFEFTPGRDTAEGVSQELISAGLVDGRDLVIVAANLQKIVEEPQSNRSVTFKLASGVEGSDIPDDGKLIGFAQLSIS

[10] = target: Angiopoietin-1 receptor (Homo sapiens) (UniProt Q02763); test: Selectivity interaction (ProQinase) EUB0000171b TEK; settings: at 5 µM
Sequence of Angiopoietin-1 receptor (Homo sapiens) (Q02763 whole entry): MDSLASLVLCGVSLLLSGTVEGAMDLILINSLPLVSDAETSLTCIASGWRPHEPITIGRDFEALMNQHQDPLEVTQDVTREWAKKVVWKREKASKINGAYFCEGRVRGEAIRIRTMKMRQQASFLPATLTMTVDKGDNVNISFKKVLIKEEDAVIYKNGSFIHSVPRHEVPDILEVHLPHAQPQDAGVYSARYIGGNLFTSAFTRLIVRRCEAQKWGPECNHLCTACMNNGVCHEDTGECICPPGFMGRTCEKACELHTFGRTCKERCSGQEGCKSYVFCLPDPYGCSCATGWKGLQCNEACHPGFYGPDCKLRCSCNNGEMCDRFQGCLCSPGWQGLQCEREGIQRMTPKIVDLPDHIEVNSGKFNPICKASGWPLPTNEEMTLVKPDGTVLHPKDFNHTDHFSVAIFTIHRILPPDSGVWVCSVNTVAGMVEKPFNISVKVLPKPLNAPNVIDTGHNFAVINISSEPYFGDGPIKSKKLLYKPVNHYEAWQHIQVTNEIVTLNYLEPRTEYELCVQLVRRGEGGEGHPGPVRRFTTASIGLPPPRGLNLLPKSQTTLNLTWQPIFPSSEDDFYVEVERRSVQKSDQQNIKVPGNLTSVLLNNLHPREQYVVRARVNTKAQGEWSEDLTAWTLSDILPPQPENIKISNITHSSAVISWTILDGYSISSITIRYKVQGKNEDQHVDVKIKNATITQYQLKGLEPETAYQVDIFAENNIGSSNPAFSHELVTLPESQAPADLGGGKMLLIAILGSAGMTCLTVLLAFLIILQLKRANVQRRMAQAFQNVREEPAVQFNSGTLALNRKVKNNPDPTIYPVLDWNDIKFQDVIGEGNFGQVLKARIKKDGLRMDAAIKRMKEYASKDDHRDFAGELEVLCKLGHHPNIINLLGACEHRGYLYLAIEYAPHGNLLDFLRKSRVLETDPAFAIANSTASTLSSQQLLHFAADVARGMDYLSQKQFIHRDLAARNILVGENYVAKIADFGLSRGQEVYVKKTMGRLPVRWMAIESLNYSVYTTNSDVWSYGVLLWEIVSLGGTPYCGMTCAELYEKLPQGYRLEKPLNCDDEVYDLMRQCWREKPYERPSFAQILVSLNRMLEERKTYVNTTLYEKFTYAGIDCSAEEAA

[11] = target: Serine/threonine-protein kinase MARK2 (Homo sapiens) (UniProt Q7KZI7); test: Selectivity interaction (KinomeScan (DiscoverX)) EUB0001049a MARK2; settings: at 1 µM
Sequence of Serine/threonine-protein kinase MARK2 (Homo sapiens) (Q7KZI7 whole entry, canonical isoform): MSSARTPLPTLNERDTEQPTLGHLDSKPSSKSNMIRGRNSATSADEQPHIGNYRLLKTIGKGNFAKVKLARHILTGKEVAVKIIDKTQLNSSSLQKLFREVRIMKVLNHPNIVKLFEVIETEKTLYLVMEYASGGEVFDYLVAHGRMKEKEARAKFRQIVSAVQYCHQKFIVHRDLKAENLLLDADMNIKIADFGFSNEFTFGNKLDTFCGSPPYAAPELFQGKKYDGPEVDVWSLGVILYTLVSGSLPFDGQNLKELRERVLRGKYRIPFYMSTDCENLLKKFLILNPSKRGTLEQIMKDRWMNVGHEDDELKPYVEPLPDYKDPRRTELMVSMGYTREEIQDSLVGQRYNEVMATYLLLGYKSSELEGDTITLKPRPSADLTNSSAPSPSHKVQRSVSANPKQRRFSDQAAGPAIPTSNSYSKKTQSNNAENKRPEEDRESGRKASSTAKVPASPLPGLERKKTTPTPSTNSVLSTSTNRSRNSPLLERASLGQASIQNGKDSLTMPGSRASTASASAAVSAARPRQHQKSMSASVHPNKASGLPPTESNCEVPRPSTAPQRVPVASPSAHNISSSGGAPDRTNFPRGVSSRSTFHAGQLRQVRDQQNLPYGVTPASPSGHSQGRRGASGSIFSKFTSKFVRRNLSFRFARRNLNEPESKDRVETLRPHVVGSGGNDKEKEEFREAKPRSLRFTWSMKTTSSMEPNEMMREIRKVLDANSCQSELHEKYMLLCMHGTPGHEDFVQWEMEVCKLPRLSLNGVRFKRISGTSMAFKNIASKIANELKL

[12] = target: T3, Phosphorylase b kinase gamma catalytic chain, liver/testis isoform (Homo sapiens) (UniProt P15735); test: Selectivity interaction (KinomeScan (DiscoverX)) EUB0000092b PHKG2; settings: at 10 µM
T3 sequence (whole entry): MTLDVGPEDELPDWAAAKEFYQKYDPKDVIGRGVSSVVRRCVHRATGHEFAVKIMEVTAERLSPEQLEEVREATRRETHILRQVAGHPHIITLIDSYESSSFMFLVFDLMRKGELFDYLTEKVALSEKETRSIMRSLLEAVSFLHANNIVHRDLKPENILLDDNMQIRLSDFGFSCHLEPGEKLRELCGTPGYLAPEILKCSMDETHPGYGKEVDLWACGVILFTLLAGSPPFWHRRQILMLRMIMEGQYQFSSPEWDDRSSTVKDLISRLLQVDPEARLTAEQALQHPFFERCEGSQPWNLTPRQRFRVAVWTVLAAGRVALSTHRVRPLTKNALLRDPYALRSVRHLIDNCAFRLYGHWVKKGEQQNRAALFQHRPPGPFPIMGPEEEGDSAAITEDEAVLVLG

[13] = target: Serine/threonine-protein kinase PAK 2 (Homo sapiens) (UniProt Q13177); test: Selectivity interaction (Kinase panel (Z-LYTE Assay)) EUB0001632a PAK2; settings: at 10 µM
Sequence of Serine/threonine-protein kinase PAK 2 (Homo sapiens) (Q13177 whole entry): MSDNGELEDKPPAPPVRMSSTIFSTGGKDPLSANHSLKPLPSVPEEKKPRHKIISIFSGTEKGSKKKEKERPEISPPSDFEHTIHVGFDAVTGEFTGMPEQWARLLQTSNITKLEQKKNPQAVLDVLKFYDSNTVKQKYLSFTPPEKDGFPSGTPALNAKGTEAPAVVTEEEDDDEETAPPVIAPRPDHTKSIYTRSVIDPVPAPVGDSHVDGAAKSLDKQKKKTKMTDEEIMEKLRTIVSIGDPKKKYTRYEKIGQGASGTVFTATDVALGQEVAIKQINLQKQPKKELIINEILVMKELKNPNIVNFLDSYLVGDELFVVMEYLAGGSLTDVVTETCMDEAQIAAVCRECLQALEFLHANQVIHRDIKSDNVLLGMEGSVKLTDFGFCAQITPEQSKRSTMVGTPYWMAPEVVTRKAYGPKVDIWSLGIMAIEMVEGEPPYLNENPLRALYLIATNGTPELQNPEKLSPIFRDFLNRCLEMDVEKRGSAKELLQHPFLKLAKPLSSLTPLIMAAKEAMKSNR

[14] = target: Ribosomal protein S6 kinase alpha-2 (Homo sapiens) (UniProt Q15349); test: Selectivity interaction (Kinase screening (Nanosyn)) EUB0000604a RPS6KA2

Q: Which % of control [1] does the source give for CN(C)CCOc1ccc(-c2nc(-c3ccncc3)c(-c3ccc4c(c3)CC/C4=N\O)[nH]2)cc1 here?
A: 15%

Q: For O[C@H]1CC[C@H](Nc2ncc3nc(Nc4c(F)cc(F)cc4F)n([C@H]4CCOC4)c3n2)CC1, which % of control [2] is on record?
A: 100%

Q: With CNC(=O)Nc1ccc(-c2nc(N3CC4CCC(C3)O4)c3cnn(C4CCC5(CC4)OCCO5)c3n2)cc1 as the compound, how does the % of inhibition [3] read?
A: -3%

Q: Which % of inhibition [4] does the source give for N#Cc1cccc(-c2c[nH]c3ncnc(N4CCOCC4)c23)c1 here?
A: 30%

Q: And the % of control [5]?
A: 72%

Q: And the % of control [6]?
A: 57%

Q: What about the % of inhibition [7] of the same compound?
A: 3%

Q: Which % of control ([8]; at 1 µM) does the source give for C=CC(=O)Nc1cc(-n2c(=O)ccc3cnc4ccc(-c5ccc(NS(C)(=O)=O)cc5)cc4c32)ccc1C here?
A: 100%

Q: And the % of control ([8]; at 10 µM)?
A: 100%

Q: What about the % of control ([9]; at 1 µM) of the same compound?
A: 100%

Q: What about the % of control ([9]; at 10 µM) of the same compound?
A: 94%

Q: For C=CC(=O)Nc1cccc(C(=O)Nc2ccc(Nc3cc(-c4[nH]c(SC)nc4C)ccn3)cc2)c1, which % of control [10] is on record?
A: 96%

Q: With COc1cc(Nc2nc(C)cc(-c3cnn4nc(OC)ccc34)n2)cc(C(F)(F)F)c1 as the compound, how does the % of control [11] read?
A: 77%

Q: With CCC(=O)N1CCN(c2ccc(-n3c(=O)ccc4cnc5ccc(-c6cnc7ccccc7c6)cc5c43)cc2C(F)(F)F)CC1 as the compound, how does the % of control [12] read?
A: 100%

Q: With Cn1cc(-n2cnc3c(NCc4nc5cc(Cl)c(Cl)cc5[nH]4)nc(N4CCOCC4)nc32)cn1 as the compound, how does the % of control [13] read?
A: -1.61%

Q: For Cc1cnc(Nc2ccc(F)cc2Cl)nc1-c1c[nH]c(C(=O)N[C@H](CO)c2cccc(Cl)c2)c1, which % of inhibition [14] is on record?
A: 7%
